This note sets out measurements from patent publication US20050282707A1, “Pyridinylisoxazoles and their use as herbicides” (Bayer CropScience GmbH, priority 2004, published 2005).

Type in all cases: in vivo
The test system of one data set is Setaria viridis. The data set can be described thus: Pre-emergence herbicidal action. The conditions noted are these: 320 g of active ingredient or less per hectare, greenhouse, visual scoring after 3 to 4 weeks vs untreated controls. From the text: (§1) Seeds of mono- and dicotyledonous weed plants are placed in sandy loam in cardboard pots and covered with soil. The compounds according to the invention, formulated as wettable powders or emulsifiable concentrates, are then applied, in the form of an aqueous suspension or emulsion, at a dosage of 320 g of active ingredient or less per hectare (converted), onto the surface of the covering earth, at an application rate of 600 to 800 l of water per ha (converted). Following treatment, the pots are placed in the greenhouse and maintained under good growth conditions for the weed plants. The visual scoring of the plant damage or emergence damage is made when the test plants have emerged, after an experimental period of 3 to 4 weeks, in comparison to untreated controls.

The next data set has as its system Amaranthus retroflexus. The experiment in a line: Pre-emergence herbicidal action. The settings on record: 320 g of active ingredient or less per hectare, greenhouse, visual scoring after 3 to 4 weeks vs untreated controls.
Excerpt: as §1

The next data set deals with Sinapis arvensis. The experiment in a line: Pre-emergence herbicidal action. The settings on record: 320 g of active ingredient or less per hectare, greenhouse, visual scoring after 3 to 4 weeks vs untreated controls.
Excerpt: as §1

The next data set deals with maize plants. The data set can be described thus: Crop plant tolerance. The settings on record: application rate of 320 g, plants with two to three true leaves, greenhouse, visual scoring four to five weeks after application.
Excerpt: as §1
(§2) In further greenhouse experiments, seeds of crop plants and of monocotyledonous and dicotyledonous weed plants are placed in sandy loam, covered with soil and placed in the greenhouse until the plants have developed two to three true leaves. Then they are treated with the compounds of the formula (I) according to the invention, and compared with those disclosed in the prior art, as described above in section 1. Four to five weeks after the application and after having been left to stand in the greenhouse, visual scoring is performed. In this test, for example, the compounds of Nos: 1.44, 2.39 and 3.44, at an application rate of 320 g, lead to no damage to maize and wheat plants.

In a further data set the test system is wheat plants. The data set can be described thus: Crop plant tolerance. The settings on record: application rate of 320 g, plants with two to three true leaves, greenhouse, visual scoring four to five weeks after application.
Excerpt: as §1, §2

With `CCS(=O)(=O)c1ccc(C(=O)c2cnoc2C2CC2)c(C)n1` [1.19], in the data set on Setaria viridis, the “activity against Setaria viridis” value is recorded as 100%. The “activity against Amaranthus retroflexus” value with Amaranthus retroflexus is on record as 100%. In addition, in the data set with Sinapis arvensis, the “activity against Sinapis arvensis” value is listed as 100%.
For `Cc1nc(Cl)ccc1C(=O)c1cnoc1C1CC1` [1.39], the “activity against Setaria viridis” value in the data set on Setaria viridis is reported as 100%. Besides, the “activity against Amaranthus retroflexus” value with Amaranthus retroflexus is 100%. Further, the “activity against Sinapis arvensis” value in the data set on Sinapis arvensis is recorded as 100%.
For the compound `CSc1ccc(-c2oncc2C(=O)C2CC2)c(C)n1` [2.14], in the data set with Setaria viridis, the “activity against Setaria viridis” value was found to be 100%. Besides, the “activity against Amaranthus retroflexus” value in the data set on Amaranthus retroflexus was 100%. Moreover, the “activity against Sinapis arvensis” value in the data set on Sinapis arvensis was 100%.
In the case of `CCS(=O)(=O)c1ccc(-c2oncc2C(=O)C2CC2)c(C)n1` [2.19], the “activity against Setaria viridis” value in the data set with Setaria viridis amounted to 100%. For the same compound, the “activity against Amaranthus retroflexus” value in the data set with Amaranthus retroflexus was 100%. In addition, the “activity against Sinapis arvensis” value in the data set on Sinapis arvensis came out at 100%.
Consider `Cc1nc(Cl)ccc1-c1oncc1C(=O)C1CC1` [2.39], for which the “activity against Setaria viridis” value in the data set on Setaria viridis is 100%. Moreover, in the data set on Amaranthus retroflexus, the “activity against Amaranthus retroflexus” value was found to be 100%. The “activity against Sinapis arvensis” value in the data set on Sinapis arvensis is recorded as 100%. In addition, the “damage to maize plants” value in the data set on maize plants is listed as “no damage”. The “damage to wheat plants” value in the data set on wheat plants is given as “no damage”.
In the case of `Cc1nc(C(F)(F)F)ccc1C(=O)C(C#N)C(=O)C1CC1` (stereo not shown) [3.44], in the data set on Setaria viridis, the “activity against Setaria viridis” value came to 100%. In addition, the “activity against Amaranthus retroflexus” value with Amaranthus retroflexus was 100%. In the data set with Sinapis arvensis, the “activity against Sinapis arvensis” value amounted to 100%. Also, the “damage to maize plants” value with maize plants is on record as “no damage”. The “damage to wheat plants” value in the data set on wheat plants was “no damage”.
